Data: patent US20250074888A1, “PYRIDAZINE DERIVATIVES AS MODULATORS OF NLRP3 INFLAMMASOME AND RELATED METHODS” (Neumora Therapeutics, Inc., priority 2021, published 2025)

Key:
IL-6 = IL-6 release from LPS-primed, nigericin-treated THP1 macrophages, Hu IL-6 AlphaLISA; assay type: cell-based; conditions: Homo sapiens, THP-1; PMA-differentiated THP1, LPS 20 ng/ml 3 hrs, compound 1 hr, Nigericin 6.7 uM 3 hrs, supernatant
NLRP3 inflammasome = NLRP3 inflammasome (Homo sapiens, UniProt Q96P20); experiment: NLRP3 inflammasome activation in THP1 macrophages (LPS priming, nigericin), IL-1β AlphaLISA; assay type: cell-based; conditions: PMA-differentiated THP1, LPS 20 ng/ml 3 hrs, compound 1 hr, Nigericin 6.7 uM 3 hrs, supernatant
Chain of NLRP3 inflammasome (Q96P20 whole entry): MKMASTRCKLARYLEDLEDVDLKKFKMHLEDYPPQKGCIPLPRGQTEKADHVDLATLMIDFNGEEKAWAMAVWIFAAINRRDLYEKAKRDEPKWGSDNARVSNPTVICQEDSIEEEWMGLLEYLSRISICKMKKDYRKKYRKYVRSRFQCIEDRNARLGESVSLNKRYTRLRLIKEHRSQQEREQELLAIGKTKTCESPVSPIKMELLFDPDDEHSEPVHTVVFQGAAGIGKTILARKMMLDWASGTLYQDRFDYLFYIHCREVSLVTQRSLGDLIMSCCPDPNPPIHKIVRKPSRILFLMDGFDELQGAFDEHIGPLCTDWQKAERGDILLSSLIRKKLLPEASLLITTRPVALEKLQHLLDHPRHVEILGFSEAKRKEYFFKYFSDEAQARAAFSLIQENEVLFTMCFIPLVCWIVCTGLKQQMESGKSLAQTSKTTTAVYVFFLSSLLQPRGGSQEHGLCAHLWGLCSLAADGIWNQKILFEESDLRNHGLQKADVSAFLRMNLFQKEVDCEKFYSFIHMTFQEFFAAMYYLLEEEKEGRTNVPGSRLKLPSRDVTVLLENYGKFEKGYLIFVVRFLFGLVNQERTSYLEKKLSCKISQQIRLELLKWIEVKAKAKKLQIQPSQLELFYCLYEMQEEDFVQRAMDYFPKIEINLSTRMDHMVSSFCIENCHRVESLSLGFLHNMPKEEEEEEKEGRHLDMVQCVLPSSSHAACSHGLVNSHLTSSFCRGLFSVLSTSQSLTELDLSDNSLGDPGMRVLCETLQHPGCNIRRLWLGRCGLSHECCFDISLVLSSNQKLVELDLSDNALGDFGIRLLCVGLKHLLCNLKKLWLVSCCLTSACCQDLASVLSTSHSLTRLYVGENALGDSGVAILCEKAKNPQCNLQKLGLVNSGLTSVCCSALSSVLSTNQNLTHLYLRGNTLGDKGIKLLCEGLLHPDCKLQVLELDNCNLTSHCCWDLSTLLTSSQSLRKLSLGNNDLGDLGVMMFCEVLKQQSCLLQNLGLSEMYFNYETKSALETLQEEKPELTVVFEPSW

SMILES	IC50 (IL-6)	IC50 (NLRP3 inflammasome)
Cc1cc(N[C@@H]2CCCN(CC(F)F)C2)nnc1-c1ccc(C(F)(F)F)cc1 [compound 60]	5000 to 10000 nM	100 to 500 nM
Cc1cc(N[C@@H]2CCCN(C)C2)nnc1-c1ccc(O)cc1 [compound 104]	> 10000 nM	> 1000 nM
Cc1cc(N[C@@H]2CCCN(C)C2)nnc1-c1ccc(C(F)F)cc1 [compound 157]	> 10000 nM	10 to 50 nM
Cc1cc(C(F)(F)F)ccc1-c1cc(O)c(N[C@@H]2CCCN(C)C2)nn1 [compound 158]	5000 to 10000 nM	100 to 500 nM
CN1CCC[C@@H](Nc2ccc(-c3ccccc3)nn2)C1 [compound 84]	> 10000 nM	> 1000 nM
Cc1cc(N[C@@H]2C[C@@H](F)CN(C(C)C)C2)nnc1-c1ccc(F)cc1 [compound 190]	> 10000 nM	50 to 100 nM
Cc1cc(N[C@H]2CCCN(C)C2)nnc1-c1ccc(C(F)(F)F)cc1 [compound 118]	> 10000 nM	> 1000 nM
CCc1ccc(-c2nnc(N[C@@H]3CCCN(C)C3)cc2C)cc1 [compound 12]	> 10000 nM	10 to 50 nM
Cc1cc(-c2cc(C)c(F)c(C)c2)nnc1N[C@@H]1CCCN(C)C1 [compound 107]	> 10000 nM	> 1000 nM
COc1cc(C(F)(F)F)cc(C)c1-c1ccc(N[C@@H]2CCCN(C)C2)nn1 [compound 75]	5000 to 10000 nM	> 1000 nM
Cc1cc(-c2ccccc2C(F)F)nnc1N[C@@H]1CCCN(C)C1 [compound 160]	1000 to 5000 nM	500 to 1000 nM
Cc1cc(N[C@@H]2CCCN(C)C2)nnc1-c1ccc(C(F)(F)F)c(C#N)c1 [compound 63]	> 10000 nM	100 to 500 nM
CCN1CCC[C@@H](Nc2nnc(-c3ccc(F)cc3)cc2C(F)(F)F)C1 [compound 197]	> 10000 nM	> 1000 nM
Cc1cc(N[C@@H]2CCCN(CC(F)F)C2)nnc1-c1ccc(F)cc1 [compound 116]	> 10000 nM	> 1000 nM
Cc1cc(-c2ccc(C3CC3)cc2)nnc1N[C@@H]1CCCN(C)C1 [compound 94]	> 10000 nM	> 1000 nM
COc1cc(N[C@@H]2CCCN(C)C2)nnc1-c1ccc(C(F)(F)F)cc1 [compound 101]	> 10000 nM	> 1000 nM
Cc1cc(N[C@@H]2CCCN(C)C2)nnc1-c1ccc(F)c(Cl)c1 [compound 34]	> 10000 nM	100 to 500 nM
Cc1cc(N[C@H]2CN(C)CC[C@H]2F)nnc1-c1ccc(F)cc1 [compound 121]	> 10000 nM	100 to 500 nM
Cc1cc(-c2ccc(F)cc2C#N)nnc1N[C@@H]1CCCN(C)C1 [compound 97]	> 10000 nM	> 1000 nM
Cc1cc(N[C@@H]2CCCN(C)C2)nnc1-c1ccc(C2CCC2)cc1 [compound 28]	5000 to 10000 nM	100 to 500 nM
Cc1cc(N[C@@H]2CCCN(CCO)C2)nnc1-c1ccc(C(F)(F)F)cc1 [compound 15, 2-[(3R)-3-[[5-methyl-6-[4-(trifluoromethyl)phenyl]pyridazin-3-yl]amino]-1-piperidyl]ethanol]	> 10000 nM	10 to 50 nM
Cc1cc(C(F)(F)F)cc(C)c1-c1ccc(N[C@@H]2CCCN(C)C2)nn1 [compound 42]	5000 to 10000 nM	500 to 1000 nM
Cc1cc(C(F)F)ccc1-c1ccc(N[C@@H]2CCCN(C)C2)nn1 [compound 199]	> 10000 nM	50 to 100 nM
Cc1cc(-c2ccc(C(F)(F)F)cc2)nnc1N[C@@H]1CCN(C)C1 [compound 182]	> 10000 nM	50 to 100 nM
CN1CCC[C@@H](Nc2nnc(-c3ccc(C(F)(F)F)cc3)cc2C#N)C1 [compound 103]	> 10000 nM	> 1000 nM
